Among the data in US20250346574A1, “PYRIDINYL SUBSTITUTED OXOISOINDOLINE COMPOUNDS FOR THE TREATMENT OF CANCER” (Bristol-Myers Squibb Company, priority 2021, published 2025) are DC50 values, retold here.

Molecules are shown by their SMILES.

T1 sequence (Q9UKS7 whole entry): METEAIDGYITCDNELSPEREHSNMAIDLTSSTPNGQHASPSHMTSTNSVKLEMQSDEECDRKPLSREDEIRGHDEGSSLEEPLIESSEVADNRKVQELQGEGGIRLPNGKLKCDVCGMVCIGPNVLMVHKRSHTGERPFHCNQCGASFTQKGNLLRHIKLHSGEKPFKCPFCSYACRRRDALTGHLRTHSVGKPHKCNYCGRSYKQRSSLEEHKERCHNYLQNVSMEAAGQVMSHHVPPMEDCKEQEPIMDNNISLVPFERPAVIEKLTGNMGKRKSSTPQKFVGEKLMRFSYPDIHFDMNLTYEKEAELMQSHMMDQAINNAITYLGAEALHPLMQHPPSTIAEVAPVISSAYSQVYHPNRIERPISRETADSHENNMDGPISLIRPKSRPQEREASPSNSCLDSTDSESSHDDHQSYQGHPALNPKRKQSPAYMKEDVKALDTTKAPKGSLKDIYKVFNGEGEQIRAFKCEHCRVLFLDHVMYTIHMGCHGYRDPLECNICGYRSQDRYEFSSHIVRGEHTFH
T1 sequence (Q96SW2 whole entry): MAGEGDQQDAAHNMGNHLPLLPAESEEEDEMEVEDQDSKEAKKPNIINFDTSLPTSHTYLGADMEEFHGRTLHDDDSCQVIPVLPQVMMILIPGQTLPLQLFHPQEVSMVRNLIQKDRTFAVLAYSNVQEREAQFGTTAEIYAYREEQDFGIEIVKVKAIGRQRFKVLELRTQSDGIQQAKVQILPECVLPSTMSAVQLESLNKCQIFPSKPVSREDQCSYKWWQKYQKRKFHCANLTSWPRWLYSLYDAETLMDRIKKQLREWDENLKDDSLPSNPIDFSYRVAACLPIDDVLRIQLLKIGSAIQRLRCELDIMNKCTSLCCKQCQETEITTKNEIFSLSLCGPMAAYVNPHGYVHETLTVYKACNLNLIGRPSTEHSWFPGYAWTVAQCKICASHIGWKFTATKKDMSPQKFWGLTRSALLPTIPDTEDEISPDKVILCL
T1 sequence (Q16531 whole entry partner): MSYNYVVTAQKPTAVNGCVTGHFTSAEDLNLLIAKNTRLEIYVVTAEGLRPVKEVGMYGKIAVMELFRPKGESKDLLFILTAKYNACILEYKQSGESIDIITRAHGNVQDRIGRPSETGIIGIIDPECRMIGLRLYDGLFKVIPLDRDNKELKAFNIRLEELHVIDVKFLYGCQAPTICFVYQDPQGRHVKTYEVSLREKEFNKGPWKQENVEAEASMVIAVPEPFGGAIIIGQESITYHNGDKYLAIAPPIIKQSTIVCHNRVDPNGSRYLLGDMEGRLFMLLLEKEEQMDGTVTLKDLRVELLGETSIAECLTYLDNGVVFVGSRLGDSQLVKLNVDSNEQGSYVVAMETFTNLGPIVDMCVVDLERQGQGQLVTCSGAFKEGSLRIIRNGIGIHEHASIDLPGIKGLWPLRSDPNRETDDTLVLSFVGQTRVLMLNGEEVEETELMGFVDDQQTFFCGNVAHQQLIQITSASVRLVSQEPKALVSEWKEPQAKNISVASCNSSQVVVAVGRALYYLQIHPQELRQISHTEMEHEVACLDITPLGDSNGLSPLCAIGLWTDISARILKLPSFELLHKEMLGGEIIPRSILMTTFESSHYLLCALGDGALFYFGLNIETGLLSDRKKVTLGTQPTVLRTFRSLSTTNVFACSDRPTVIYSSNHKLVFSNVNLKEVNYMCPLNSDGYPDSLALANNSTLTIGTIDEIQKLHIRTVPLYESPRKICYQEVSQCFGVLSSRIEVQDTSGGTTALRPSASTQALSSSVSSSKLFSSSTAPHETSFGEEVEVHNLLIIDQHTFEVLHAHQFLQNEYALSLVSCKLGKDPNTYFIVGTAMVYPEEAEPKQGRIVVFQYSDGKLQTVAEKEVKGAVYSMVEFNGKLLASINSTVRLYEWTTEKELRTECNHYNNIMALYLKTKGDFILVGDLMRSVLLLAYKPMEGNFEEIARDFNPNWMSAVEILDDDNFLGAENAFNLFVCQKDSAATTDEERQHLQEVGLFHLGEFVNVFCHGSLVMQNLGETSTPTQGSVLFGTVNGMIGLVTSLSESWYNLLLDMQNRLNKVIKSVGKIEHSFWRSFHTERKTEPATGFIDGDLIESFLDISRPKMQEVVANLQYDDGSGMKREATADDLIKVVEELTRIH

The target of the first assay is T1, Helios (Homo sapiens, UniProt Q96SW2+Q9UKS7). Put plainly: Helios Cellular Degradation Assay (Jurkat cells). The class given is cell-based. Also on record: fluorescently labelled antibodies against Helios, Ikaros and Aiolos; endogenous in cells; host or cells: Jurkat cells. To be noted: incubated 72 h, Helios-PE antibody staining, flow cytometry, read-out: Helios Jurkat IC50. Here is the method:
Jurkat cells were plated at 80,000 cells/well in 40 μL RPMI+10% FBS in a 384 well cell culture plate prior to using acoustic dispensing technology for adding compound of interest. Cell cultures were incubated for 72 h at 37° C. and 5% CO2. In order to facilitate analysis, cell cultures were spun down at 200 rpm for 5 min and the supernatant was discarded. After shaking the plate to dislodge the cell pellet, cells were resuspended in 50 μL of Fixation Buffer (eBioScience FoxP3 buffer set 00-5523-00) for 60 min at room temperature. After centrifuging and discarding the supernatant, cells were permeabilized with 50 μL of Permeabilization buffer (eBioScience FoxP3 buffer set 00-5523-00) for 10 min at room temperature. Following permeabilization, cells were spun down and the supernatant was replaced with 20 μL fluorescently labelled antibodies against Helios, Ikaros and Aiolos or corresponding Isotype controls in 1× Permeabilization buffer (Ikaros-Alexa488 [Biolegend, Cat #368408, 1:50], Helios-PE [CST, Cat #29360, 1:50], Aiolos-Alexa647 [Biolegend, Cat #371106Biolegend, 1:25]) and staining reactions were incubated for 1 h at room temperature; protected from light. […] Stained cells were resuspended in 25 μL of flow cytometry staining buffer (PBS+0.2% BSA) and analyzed using an Intellicyt Ique Plus flow cytometer.
A general note: In flow cytometry, cells or beads pass a laser one at a time.
As to `NC(=O)C1CCN1Cc1ccnc(-c2ccc3c(c2)CN(C2CCC(=O)NC2=O)C3=O)c1` (stereo not shown) [Example 79, 1-((2-(2-(2,6-dioxopiperidin-3-yl)-1-oxoisoindolin-5-yl)pyridin-4-yl)methyl) azetidine-2-carboxamide], the DC50 stood at 736 nM.

Another assay concerns the target T1, Helios. Briefly: Helios Human T Regulatory Cells Degradation Assay. It counts as cell-based. Also on record: fluorescently labelled antibodies against Helios in 1× Permeabilization buffer; endogenous in cells; host or cells: cryopreserved human T regulatory cells. As to conditions: cryopreserved human T regulatory cells, incubated 20 hours, Helios-APC antibody staining, flow cytometry; read-out: hTreg Helios DC50. The method in brief:
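Cryopreserved human Treg cells thawed in RPMI+10% FBS+20 ng/mL IL-2, rested 3 h, then incubated with compound 20 hours at 37° C, 5% CO2. Near-IR viability stain, permeabilization, flow cytometry read-out.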
As to `Cc1c2c(nn1C)CCN(Cc1ccnc(-c3ccc4c(c3)CN(C3CCC(=O)NC3=O)C4=O)c1F)C2` (stereo not shown) [Example 265, 3-(5-(4-((2,3-dimethyl-2,4,6,7-tetrahydro-5H-pyrazolo[4,3-c]pyridin-5-yl)methyl)-3-fluoropyridin-2-yl)-1-oxoisoindolin-2-yl)piperidine-2,6-dione], the DC50 was at least 10000 nM.
For `O=C1CCC(N2Cc3cc(-c4nccc(CN5CCn6c(nnc6C(F)(F)F)C5)c4F)ccc3C2=O)C(=O)N1` (stereo not shown) [Example 266, 3-(5-(3-fluoro-4-((3-(trifluoromethyl)-5,6-dihydro-[1,2,4]triazolo[4,3-a]pyrazin-7(8H)-yl)methyl)pyridin-2-yl)-1-oxoisoindolin-2-yl)piperidine-2,6-dione], the DC50 is at least 10000 nM.
Still for that read-out and setting: to `O=C1CCC(N2Cc3cc(-c4nccc(CN5CCc6c(ccnc6Cl)C5)c4F)ccc3C2=O)C(=O)N1` (stereo not shown) [Example 267, 3-(5-(4-((5-chloro-3,4-dihydro-2,6-naphthyridin-2(1H)-yl)methyl)-3-fluoropyridin-2-yl)-1-oxoisoindolin-2-yl)piperidine-2,6-dione] belongs at least 10000 nM; to `O=C1CCC(N2Cc3cc(-c4nccc(CN5CCc6cccc(Cl)c6C5)c4F)ccc3C2=O)C(=O)N1` (stereo not shown) [Example 268, 3-(5-(4-((8-chloro-3,4-dihydroisoquinolin-2(1H)-yl)methyl)-3-fluoropyridin-2-yl)-1-oxoisoindolin-2-yl)piperidine-2,6-dione], at least 10000 nM.
Same read-out and setting: the result for `CC(=O)N1CCCC12CCN(Cc1ccnc(-c3ccc4c(c3)CN(C3CCC(=O)NC3=O)C4=O)c1F)C2` (stereo not shown) [Example 270, 3-(5-(4-((1-acetyl-1,7-diazaspiro[4.4]nonan-7-yl)methyl)-3-fluoropyridin-2-yl)-1-oxoisoindolin-2-yl)piperidine-2,6-dione] reads at least 10000 nM; that for `COC(=O)N1CCCC12CCN(Cc1ccnc(-c3ccc4c(c3)CN(C3CCC(=O)NC3=O)C4=O)c1F)C2` (stereo not shown) [Example 271, methyl 7-((2-(2-(2,6-dioxopiperidin-3-yl)-1-oxoisoindolin-5-yl)-3-fluoropyridin-4-yl)methyl)-1,7-diazaspiro[4.4]nonane-1-carboxylate], at least 10000 nM; that for `CC(=O)N1CCC2(CN(Cc3ccnc(-c4ccc5c(c4)CN(C4CCC(=O)NC4=O)C5=O)c3F)C2)C1` (stereo not shown) [Example 272, 3-(5-(4-((6-acetyl-2,6-diazaspiro[3.4]octan-2-yl)methyl)-3-fluoropyridin-2-yl)-1-oxoisoindolin-2-yl)piperidine-2,6-dione], 280 nM.
As to `COC(=O)N1CCC2(CN(Cc3ccnc(-c4ccc5c(c4)CN(C4CCC(=O)NC4=O)C5=O)c3F)C2)C1` (stereo not shown) [Example 273, methyl 2-((2-(2-(2,6-dioxopiperidin-3-yl)-1-oxoisoindolin-5-yl)-3-fluoropyridin-4-yl)methyl)-2,6-diazaspiro[3.4]octane-6-carboxylate], the DC50 was determined as 280 nM.
Same read-out and setting: to `CC(=O)N1CC2CCCN(Cc3ccnc(-c4ccc5c(c4)CN(C4CCC(=O)NC4=O)C5=O)c3F)C2C1` (stereo not shown) [Example 274, 3-(5-(4-((6-acetyloctahydro-1H-pyrrolo[3,4-b]pyridin-1-yl)methyl)-3-fluoropyridin-2-yl)-1-oxoisoindolin-2-yl)piperidine-2,6-dione] belongs at least 10000 nM; to `COC(=O)N1CC2CCCN(Cc3ccnc(-c4ccc5c(c4)CN(C4CCC(=O)NC4=O)C5=O)c3F)C2C1` (stereo not shown) [Example 275, methyl 1-((2-(2-(2,6-dioxopiperidin-3-yl)-1-oxoisoindolin-5-yl)-3-fluoropyridin-4-yl)methyl)octahydro-6H-pyrrolo[3,4-b]pyridine-6-carboxylate], at least 10000 nM; to `CC(C)(O)C1CCN(Cc2ccnc(-c3ccc4c(c3F)CN(C3CCC(=O)NC3=O)C4=O)c2F)CC1` (stereo not shown) [Example 276, 3-(4-fluoro-5-(3-fluoro-4-((4-(2-hydroxypropan-2-yl)piperidin-1-yl)methyl)pyridin-2-yl)-1-oxoisoindolin-2-yl)piperidine-2,6-dione], 28 nM.
Still for that read-out and setting: the result for `O=C1CCC(N2Cc3c(ccc(-c4nccc(CN5CC[C@H](CO)C5)c4F)c3F)C2=O)C(=O)N1` (stereo partly drawn) [Example 277, 3-(4-fluoro-5-(3-fluoro-4-(((S)-3-(hydroxymethyl)pyrrolidin-1-yl)methyl)pyridin-2-yl)-1-oxoisoindolin-2-yl)piperidine-2,6-dione] reads 31.9 nM; that for `CC(C)(O)[C@@H]1CCN(Cc2ccnc(-c3ccc4c(c3F)CN(C3CCC(=O)NC3=O)C4=O)c2F)C1` (stereo partly drawn) [Example 278, 3-(4-fluoro-5-(3-fluoro-4-(((R)-3-(2-hydroxypropan-2-yl)pyrrolidin-1-yl)methyl)pyridin-2-yl)-1-oxoisoindolin-2-yl)piperidine-2,6-dione], 31.8 nM.
On to `CC(C)(O)[C@H]1CCN(Cc2ccnc(-c3ccc4c(c3F)CN(C3CCC(=O)NC3=O)C4=O)c2F)C1` (stereo partly drawn) [Example 279, 3-(4-fluoro-5-(3-fluoro-4-(((S)-3-(2-hydroxypropan-2-yl)pyrrolidin-1-yl)methyl)pyridin-2-yl)-1-oxoisoindolin-2-yl)piperidine-2,6-dione], for which the DC50 is 34.3 nM.
Take `O=C1CCC(N2Cc3c(ccc(-c4nccc(CN5CCC(O)(c6ccccc6)CC5)c4F)c3F)C2=O)C(=O)N1` (stereo not shown) [Example 280, 3-(4-fluoro-5-(3-fluoro-4-((4-hydroxy-4-phenylpiperidin-1-yl)methyl)pyridin-2-yl)-1-oxoisoindolin-2-yl)piperidine-2,6-dione]: the DC50 was at least 10000 nM.
On the same count and under the same terms, the result for `CC(C)(O)C1CN(Cc2ccnc(-c3ccc4c(c3F)CN(C3CCC(=O)NC3=O)C4=O)c2F)C1` (stereo not shown) [Example 281, 3-(4-fluoro-5-(3-fluoro-4-((3-(2-hydroxypropan-2-yl)azetidin-1-yl)methyl)pyridin-2-yl)-1-oxoisoindolin-2-yl)piperidine-2,6-dione] reads 22.1 nM; that for `O=C1CCC(N2Cc3c(ccc(-c4nccc(CN5CCn6c(nnc6C(F)(F)F)C5)c4F)c3F)C2=O)C(=O)N1` (stereo not shown) [Example 282, 3-(4-fluoro-5-(3-fluoro-4-((3-(trifluoromethyl)-5,6-dihydro-[1,2,4]triazolo[4,3-a]pyrazin-7(8H)-yl)methyl)pyridin-2-yl)-1-oxoisoindolin-2-yl)piperidine-2,6-dione], at least 10000 nM.
Still for that read-out and setting: the result for `O=C1CCC(N2Cc3c(ccc(-c4nccc(CN5CCc6c(ccnc6Cl)C5)c4F)c3F)C2=O)C(=O)N1` (stereo not shown) [Example 283, 3-(5-(4-((5-chloro-3,4-dihydro-2,6-naphthyridin-2(1H)-yl)methyl)-3-fluoropyridin-2-yl)-4-fluoro-1-oxoisoindolin-2-yl) piperidine-2,6-dione] reads at least 10000 nM.
